Target: Dopamine receptor
Assay: Inhibitory activity against constrictor response to electrical stimulation in the isolated perfused rabbit ear artery(REA) expressing dopamine receptor
Parameters: species or system Oryctolagus cuniculus

Row | Compound | EC50
1 | CCCN(CCC)CCc1cccc(NC(C)=O)c1 | > 1000 nM
2 | CCCN(CCC)CCc1cccc(O)c1 | 700 nM

Reference: ChEMBL document CHEMBL1122826, “4-[2-(Di-n-propylamino)ethyl]-2(3H)-indolone: a prejunctional dopamine receptor agonist” (J Med Chem, 1985)
